For experiment [1], the target named is LRRK2, WT (GST-tagged truncated LRRK2) (Homo sapiens, UniProt Q5S007). As to the kind of experiment: LRRK2 kinase assay (LanthaScreen), wild type. The experiment is classed as biochemical. The protocol: (§1) LRRK2 kinase activity was measured using Lantha Screen technology from Invitrogen. GST-tagged truncated LRRK2 from Invitrogen (Cat #PV4874) was incubated with a fluorescein-labeled peptide substrate based upon ezrin/radixin/moesin (ERM), also known as LRRKtide (Invitrogen cat #PR8976A), in the presence of a dose response of compound. Upon completion, the assay was stopped and detected with a terbium labeled anti-phospho-ERM antibody (Invitrogen, cat #PR8975A). […] Using Echo acoustic dispensing, 60 nL of compound was transferred to a low volume Corning 384-well assay plate. 3 μL of a working solution of substrate (200 nM LRRKtide, 2 mM ATP) prepared in assay buffer (50 mM HEPES, pH 7.5, 3 mM MgCl2, with 2 mM DTT and 0.01% Brij35 added fresh) was added to the 60 nL compound assay plate. The kinase reaction was started with 3 μL of a working solution of LRRK2 enzyme at a concentration of 4 μg/m L. The final reaction concentrations were 100 nM LRRKtide, 1 mM ATP, 2 μg/mL LRRK2 enzyme and a compound dose response with a top dose of 3 μM. The reaction was allowed to progress at room temperature for 30 minutes and then stopped with the addition of 6 μL of detection buffer (20 mM Tris pH 7.6, 0.01% NP-40, 6 mM EDTA with 2 nM terbium labeled antiphospho-ERM). […] All final concentrations of substrate ATP and enzyme were the same.

The target of another experiment is mutant G2019S LRRK2 (Homo sapiens (Human), UniProt Q5S007, G2019S). As to the kind of experiment: LRRK2 kinase assay (LanthaScreen), G2019S mutant. The experiment is classed as biochemical. The protocol: as §1
Chain of mutant G2019S LRRK2 (Q5S007 whole entry G2019S): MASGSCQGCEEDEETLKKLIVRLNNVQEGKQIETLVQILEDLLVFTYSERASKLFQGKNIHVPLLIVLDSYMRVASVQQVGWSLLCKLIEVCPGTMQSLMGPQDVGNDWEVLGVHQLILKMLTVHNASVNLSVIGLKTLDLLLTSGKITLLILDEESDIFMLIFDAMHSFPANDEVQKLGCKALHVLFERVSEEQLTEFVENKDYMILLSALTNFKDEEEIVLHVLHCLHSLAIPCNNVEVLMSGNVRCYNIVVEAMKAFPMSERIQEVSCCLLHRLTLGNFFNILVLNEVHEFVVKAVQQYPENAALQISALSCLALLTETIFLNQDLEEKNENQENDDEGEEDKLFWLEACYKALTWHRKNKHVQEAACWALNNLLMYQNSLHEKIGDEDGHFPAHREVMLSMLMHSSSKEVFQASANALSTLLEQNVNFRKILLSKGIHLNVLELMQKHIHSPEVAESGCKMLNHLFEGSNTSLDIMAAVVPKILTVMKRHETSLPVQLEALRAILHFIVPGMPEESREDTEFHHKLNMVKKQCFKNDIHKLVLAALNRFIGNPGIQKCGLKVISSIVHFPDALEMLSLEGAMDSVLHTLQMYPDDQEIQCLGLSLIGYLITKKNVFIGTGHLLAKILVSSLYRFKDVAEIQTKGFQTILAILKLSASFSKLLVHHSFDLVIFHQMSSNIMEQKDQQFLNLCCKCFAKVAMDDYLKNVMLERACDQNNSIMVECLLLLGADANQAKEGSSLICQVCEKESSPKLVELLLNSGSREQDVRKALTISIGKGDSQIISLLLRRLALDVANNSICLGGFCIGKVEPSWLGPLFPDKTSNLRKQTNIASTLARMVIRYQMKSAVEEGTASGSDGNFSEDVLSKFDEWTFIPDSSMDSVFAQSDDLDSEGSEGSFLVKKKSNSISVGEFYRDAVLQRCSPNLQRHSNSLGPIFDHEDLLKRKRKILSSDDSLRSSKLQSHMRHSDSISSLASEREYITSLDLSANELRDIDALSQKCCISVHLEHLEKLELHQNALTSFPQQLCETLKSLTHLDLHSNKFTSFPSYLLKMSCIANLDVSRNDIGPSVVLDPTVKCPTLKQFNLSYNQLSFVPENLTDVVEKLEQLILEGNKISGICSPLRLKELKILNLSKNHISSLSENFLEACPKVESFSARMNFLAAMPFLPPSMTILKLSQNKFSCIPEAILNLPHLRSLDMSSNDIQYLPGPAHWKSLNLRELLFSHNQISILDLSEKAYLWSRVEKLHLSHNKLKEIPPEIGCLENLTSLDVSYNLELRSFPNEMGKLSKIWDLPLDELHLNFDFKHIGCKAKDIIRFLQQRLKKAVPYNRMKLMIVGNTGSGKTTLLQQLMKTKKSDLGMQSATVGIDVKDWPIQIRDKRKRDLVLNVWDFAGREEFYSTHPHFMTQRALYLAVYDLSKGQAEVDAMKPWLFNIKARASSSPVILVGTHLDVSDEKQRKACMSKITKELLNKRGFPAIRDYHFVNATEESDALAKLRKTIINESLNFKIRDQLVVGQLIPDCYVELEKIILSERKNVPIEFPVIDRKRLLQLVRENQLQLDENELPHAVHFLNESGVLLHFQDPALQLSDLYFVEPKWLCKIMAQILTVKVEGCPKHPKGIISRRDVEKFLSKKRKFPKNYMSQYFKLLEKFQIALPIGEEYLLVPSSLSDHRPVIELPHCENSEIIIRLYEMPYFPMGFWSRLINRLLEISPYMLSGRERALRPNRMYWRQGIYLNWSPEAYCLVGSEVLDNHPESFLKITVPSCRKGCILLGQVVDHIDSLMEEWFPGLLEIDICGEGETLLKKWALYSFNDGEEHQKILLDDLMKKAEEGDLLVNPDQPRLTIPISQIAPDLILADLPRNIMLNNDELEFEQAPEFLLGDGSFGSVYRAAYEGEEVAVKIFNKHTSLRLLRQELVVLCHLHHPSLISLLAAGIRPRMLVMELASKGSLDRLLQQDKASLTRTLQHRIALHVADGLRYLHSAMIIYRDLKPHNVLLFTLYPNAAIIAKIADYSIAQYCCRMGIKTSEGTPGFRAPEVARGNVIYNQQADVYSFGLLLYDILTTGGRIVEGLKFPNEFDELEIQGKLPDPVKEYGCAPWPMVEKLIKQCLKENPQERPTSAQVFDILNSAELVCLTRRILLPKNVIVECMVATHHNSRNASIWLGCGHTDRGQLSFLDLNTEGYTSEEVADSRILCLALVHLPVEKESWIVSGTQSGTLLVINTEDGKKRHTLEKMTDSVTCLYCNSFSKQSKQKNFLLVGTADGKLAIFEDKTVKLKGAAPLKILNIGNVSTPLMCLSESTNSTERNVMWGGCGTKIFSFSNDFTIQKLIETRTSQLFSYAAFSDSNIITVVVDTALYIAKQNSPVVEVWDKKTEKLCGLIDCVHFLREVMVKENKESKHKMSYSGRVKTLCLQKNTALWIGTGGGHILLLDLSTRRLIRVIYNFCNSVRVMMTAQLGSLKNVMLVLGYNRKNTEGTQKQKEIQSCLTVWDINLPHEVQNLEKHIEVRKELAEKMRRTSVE
On the technique in general: TR-FRET usually uses a lanthanide donor and a delayed reading to cut background.

The mark [2] stands for this setting: wild type LRRK2, LanthaScreen, LRRKtide substrate.
Where [3] appears, read: G2019S mutant LRRK2, LanthaScreen, LRRKtide substrate, read-out: LRRK2, G2019S IC50.

Usually IC50 stands for the concentration needed to halve the response being measured.

Where two headings read alike, the source gives them in different places.

Regarding `Cc1cnn(Cc2nc3cnc4ccc(Cl)cc4c3n2C2CN(C)CC2(F)F)n1` (stereo not drawn) [Example 87, 8-chloro-1-(4,4-difluoro-1-methylpyrrolidin-3-yl)-2-[(4-methyl-2H-1,2,3-triazol-2-yl)methyl]-1H-imidazo[4,5-c]quinoline], the values for the IC50 (in experiment [1] (setting [2]); at mutant G2019S LRRK2 (setting [3])) were 7.04 nM and 4.51 nM, respectively.

As to `Cc1cc(Cc2nc3cnc4ccc(C#N)cc4c3n2[C@@H]2CCN(C)C2)on1` [Example 35, 2-[(3-methyl-1,2-oxazol-5-yl)methyl]-1-[(3R)-1-methylpyrrolidin-3-yl]-1H-imidazo [4,5-c]quinoline-8-carbonitrile], the IC50 in experiment [1] (setting [2]) came out at 7.57 nM; on mutant G2019S LRRK2 (setting [3]) it was 6.17 nM.

Take `N#Cc1ccc2ncc3nc(Cc4nc5ccccc5o4)n([C@@H]4CC[C@H](F)C4)c3c2c1` (relative stereo) [Example 65, 2-(1,3-benzoxazol-2-ylmethyl)-1-[cis-3-fluorocyclopentyl]-1H-imidazo[4,5-c]quinoline-8-carbonitrile]: the IC50 in experiment [1] (setting [2]) worked out at 8.56 nM; on mutant G2019S LRRK2 (setting [3]), 6.33 nM.

Regarding `COc1cnn(Cc2nc3cnc4ccc(C#N)cc4c3n2[C@@H]2CCO[C@H](C)C2)c1` [Example 57, 2-[(4-methoxy-1H-pyrazol-1-yl)methyl]-1-[(2R,4R)-2-methyltetrahydro-2H-pyran-4-yl]-1H-imidazo[4,5-c]quinoline-8-carbonitrile], the IC50 stood at 7.43 nM in experiment [1] (setting [2]) and 5.4 nM at mutant G2019S LRRK2 (setting [3]).

Regarding `CC(C#N)Cc1nc2cnc3ccc(Cl)cc3c2n1[C@@H]1CCO[C@H](C)C1` (stereo partly drawn) [Example 78, 3-{8-chloro-1-[(2R,4R)-2-methyltetrahydro-2H-pyran-4-yl]-1H-imidazo[4,5-c]quinolin-2-yl}-2-methylpropanenitrile], the IC50 in experiment [1] (setting [2]) amounted to 25.8 nM; at mutant G2019S LRRK2 (setting [3]), 13.2 nM.

As for `Cc1cc(Cc2nc3cnc4ccc(Cl)cc4c3n2C2CN(C)CC2(F)F)no1` (stereo not drawn) [Example 52, 8-chloro-1-(4,4-difluoro-1-methylpyrrolidin-3-yl)-2-[(5-methyl-1,2-oxazol-3-yl)methyl]-1H-imidazo[4,5-c]quinoline], the results for the IC50 (in experiment [1] (setting [2]); on mutant G2019S LRRK2 (setting [3])) were 15.1 nM and 12.9 nM, respectively.

Consider `COc1cnn(Cc2nc3cnc4ccc(Cl)cc4c3n2CC(C)(F)F)c1` [Example 72, 8-chloro-1-(2,2-difluoropropyl)-2-[(4-methoxy-1H-pyrazol-1-yl)methyl]-1H-imidazo[4,5-c]quinoline], for which the values for the IC50 (in experiment [1] (setting [2]); at mutant G2019S LRRK2 (setting [3])) were 12.1 nM and 7.17 nM, respectively.

Take `Cc1cc(Cc2nc3cnc4ccc(Cl)cc4c3n2C2CN(C)CC2(F)F)no1` (stereo not drawn) [Example 51, 8-chloro-1-(4,4-difluoro-1-methylpyrrolidin-3-yl)-2-[(5-methyl-1,2-oxazol-3-yl)methyl]-1H-imidazo[4,5-c]quinoline]: the IC50 was 5.78 nM in experiment [1] (setting [2]) and 3.49 nM at mutant G2019S LRRK2 (setting [3]).

Turning to `COCc1cn(Cc2nc3cnc4ccc(F)cc4c3n2C2CN(C)CC2(F)F)nn1` (stereo not drawn) [Example 53, 1-(4,4-difluoro-1-methylpyrrolidin-3-yl)-8-fluoro-2-{[4-(methoxymethyl)-1H-1,2,3-triazol-1-yl]methyl}-1H-imidazo[4,5-c]quinoline], the IC50 in experiment [1] (setting [2]) turned out to be 7.51 nM; at mutant G2019S LRRK2 (setting [3]) it was 7.49 nM.

Turning to `Cc1cc(Cc2nc3cnc4ccc(C(F)(F)F)cc4c3n2[C@@H]2CCO[C@H](C)C2)ncn1` [Example 76, 2-[(6-methylpyrimidin-4-yl)methyl]-1-[(2R,4R)-2-methyltetrahydro-2H-pyran-4-yl]-8-(trifluoromethyl)-1H-imidazo[4,5-c]quinoline], the results for the half-inhibitory concentration (IC50) (in experiment [1] (setting [2]); on mutant G2019S LRRK2 (setting [3])) were 17.3 nM and 12 nM, respectively.

As for `C[C@@H]1C[C@H](n2c(Cc3cscn3)nc3cnc4ccc(C(F)(F)F)cc4c32)CCO1` [Example 69, 1-[(2R,4R)-2-methyltetrahydro-2H-pyran-4-yl]-2-(1,3-thiazol-4-ylmethyl)-8-(trifluoromethyl)-1H-imidazo[4,5-c]quinoline], the IC50 in experiment [1] (setting [2]) worked out at 7.39 nM; at mutant G2019S LRRK2 (setting [3]) it was 3.33 nM.

With `Cc1cc(Cc2nc3cnc4ccc(Cl)cc4c3n2[C@@H]2CCN(C)C2)ncn1` [Example 40, 8-chloro-2-[(6-methylpyrimidin-4-yl)methyl]-1-[(3R)-1-methylpyrrolidin-3-yl]-1H-imidazo[4,5-c]quinoline], the IC50 was 9.73 nM in experiment [1] (setting [2]) and 13.9 nM at mutant G2019S LRRK2 (setting [3]).

As for `Cc1cn(Cc2nc3cnc4ccc(Cl)cc4c3n2C2CN(C)CC2(F)F)nn1` (stereo not drawn) [Example 82, 8-chloro-1-(4,4-difluoro-1-methylpyrrolidin-3-yl)-2-[(4-methyl-1H-1,2,3-triazol-1-yl)methyl]-1H-imidazo[4,5-c]quinoline], the IC50 in experiment [1] (setting [2]) was 6.33 nM; at mutant G2019S LRRK2 (setting [3]) it was 4.64 nM.

As for `Cc1cn(Cc2nc3cnc4ccc(Cl)cc4c3n2C2CCOCC2(F)F)nn1` (stereo not drawn) [Example 46, 8-chloro-1-(3,3-difluorotetrahydro-2H-pyran-4-yl)-2-[(4-methyl-1H-1,2,3-triazol-1-yl)methyl]-1H-imidazo[4,5-c]quinoline], the results for the IC50 (in experiment [1] (setting [2]); at mutant G2019S LRRK2 (setting [3])) were 9.31 nM and 7.66 nM, respectively.

Turning to `Cc1cnc(Cc2nc3cnc4ccc(C(F)(F)F)cc4c3n2[C@@H]2CCO[C@H](C)C2)cn1` [Example 29, 2-[(5-methylpyrazin-2-yl)methyl]-1-[(2R,4R)-2-methyltetrahydro-2H-pyran-4-yl]-8-(trifluoromethyl)-1H-imidazo[4,5-c]quinoline], the values for the IC50 (in experiment [1] (setting [2]); at mutant G2019S LRRK2 (setting [3])) were 6.47 nM and 4.13 nM, respectively.

In the case of `Cc1cn(Cc2nc3cnc4ccc(Cl)cc4c3n2C2CCOCC2(F)F)nn1` (stereo not drawn) [enantiomer of Example 46, 8-chloro-1-(3,3-difluorotetrahydro-2H-pyran-4-yl)-2-[(4-methyl-1H-1,2,3-triazol-1-yl)methyl]-1H-imidazo[4,5-c]quinoline], the concentration for half-maximal inhibition (IC50) in experiment [1] (LanthaScreen, LRRKtide substrate, 1 mM ATP) was determined as 21.4 nM; on mutant G2019S LRRK2 (LanthaScreen, LRRKtide substrate, 1 mM ATP, read-out: LRRK2, G2019S mutant IC50), 16.1 nM.

With `Cc1cn(Cc2nc3cnc4ccc(Cl)cc4c3n2C2CN(C)CC2(F)F)nn1` (stereo not drawn) [Example 48, 8-chloro-1-(4,4-difluoro-1-methylpyrrolidin-3-yl)-2-[(4-methyl-1H-1,2,3-triazol-1-yl)methyl]-1H-imidazo[4,5-c]quinoline], the IC50 in experiment [1] (setting [2]) stood at 3.27 nM; at mutant G2019S LRRK2 (setting [3]) it was 0.938 nM.

In the case of `Cc1nc(Cc2nc3cnc4ccc(C#N)cc4c3n2C2CN(C)CC2(F)F)no1` (stereo not drawn) [Example 32, 1-(4,4-difluoro-1-methylpyrrolidin-3-yl)-2-[(5-methyl-1,2,4-oxadiazol-3-yl)methyl]-1H-imidazo[4,5-c]quinoline-8-carbonitrile], the figures for the IC50 (in experiment [1] (setting [2]); on mutant G2019S LRRK2 (setting [3])) were 4.59 nM and 5.98 nM, respectively.

As for `Cc1cc(Cc2nc3cnc4ccc(C#N)cc4c3n2[C@@H]2CC[C@H](F)C2)no1` (racemic) [Example 68, 1-[cis-3-fluorocyclopentyl]-2-[(5-methyl-1,2-oxazol-3-yl)methyl]-1H-imidazo[4,5-c]quinoline-8-carbonitrile], the IC50 in experiment [1] (wild type LRRK2, data obtained using the formate salt of the Example) came to 8.32 nM; at mutant G2019S LRRK2 (G2019S mutant LRRK2, data obtained using the formate salt of the Example, read-out: LRRK2, G2019S IC50), 12.3 nM.

For the compound `Cc1cnc(C(O)c2nc3cnc4ccc(Cl)cc4c3n2[C@@H]2CCO[C@H](C)C2)cn1` (single isomer, unassigned) [Example 15], the IC50 is 16.3 nM in experiment [1] (setting [2]) and 18.4 nM on mutant G2019S LRRK2 (setting [3]).

Take `Cc1nnc(Cc2nc3cnc4ccc(Cl)cc4c3n2C2CN(C)CC2(F)F)s1` (stereo not drawn) [Example 89, 8-chloro-1-(4,4-difluoro-1-methylpyrrolidin-3-yl)-2-[(5-methyl-1,3,4-thiadiazol-2-yl)methyl]-1H-imidazo[4,5-c]quinoline]: the IC50 stood at 13.9 nM in experiment [1] (setting [2]) and 8.03 nM at mutant G2019S LRRK2 (setting [3]).
